Experimental data published in patent US9334246B2, “Substituted triazines for malaria treatment and chemoprophylaxis” (The United States of America, as represented by the …, priority 2013, dated 2016).

Experiments:
Format in all cases: cell-based, Plasmodium falciparum
P. falciparum W2 = test: Malaria SYBR Green Fluorescence Assay, W2 strain; settings: for W2: SYBR Green Assay
P. falciparum D6 = test: Malaria SYBR Green Fluorescence Assay, D6 strain; settings: for D6: SYBR Green Assay
P. falciparum C235 = test: Malaria SYBR Green Fluorescence Assay, C235 strain; settings: for C235: SYBR Green Assay

Compound	W2 (P. falciparum W2)	D6 (P. falciparum D6)	C235 (P. falciparum C235)	other results
CSc1ccc(-c2nc(NCCCN3CCCC3)nc(C(Cl)(Cl)Cl)n2)cc1 [Cmpd 44]	204 ng/mL	462 ng/mL	638 ng/mL	
CN1CCN(c2nc(-c3ccc(S(C)(=O)=O)cc3)nc(C(Cl)(Cl)Cl)n2)CC1 [Cmpd 54]	356 ng/mL	432 ng/mL	632 ng/mL	
CN1CCC(Nc2nc(-c3ccc(C(Cl)(Cl)Cl)cc3)nc(C(Cl)(Cl)Cl)n2)CC1 [Cmpd 61]	376 ng/mL	570 ng/mL	556 ng/mL	
COc1ccccc1Nc1nc(NCCC2CCCN2C)nc(C(Cl)(Cl)Cl)n1 (centres unmarked) [Cmpd 63]	794 ng/mL	603 ng/mL	540 ng/mL	
CN1CCCC1CCNc1nc(-c2ccc(S(C)(=O)=O)cc2)nc(C(Cl)(Cl)Cl)n1 (centres unmarked) [Cmpd 75]		635 ng/mL		
CCN1CCCC(Nc2nc(Cc3ccc(OC)cc3)nc(C(Cl)(Cl)Cl)n2)C1 (centres unmarked) [Cmpd 81]	601 ng/mL	633 ng/mL	992 ng/mL	
COc1cccc(Cc2nc(NCCN3CCCC3)nc(C(Cl)(Cl)Cl)n2)c1 [Cmpd 82]	805 ng/mL			
CCN1CCCC(Nc2nc(Cc3ccc(OC)cc3)nc(C(Cl)(Cl)Cl)n2)C1 (centres unmarked) [Cmpd 86]	600 ng/mL	623 ng/mL	991 ng/mL	
CCN1CCCC(Nc2nc(-c3ccc(SC)cc3)nc(C(Cl)(Cl)Cl)n2)C1 (centres unmarked) [Cmpd 88]	69 ng/mL	79 ng/mL	77 ng/mL	
CC(=O)Nc1cccc(Nc2nc(NCCC3CCCN3C)nc(C(Cl)(Cl)Cl)n2)c1 (centres unmarked) [Cmpd 92]	106 ng/mL	122 ng/mL	164 ng/mL	
CCN1CCCC(Nc2nc(Cc3ccccc3OC)nc(C(Cl)(Cl)Cl)n2)C1 (centres unmarked) [Cmpd 94]	173 ng/mL	396 ng/mL	456 ng/mL	
CS(=O)(=O)c1ccc(-c2nc(NCCNCCO)nc(C(Cl)(Cl)Cl)n2)cc1 [Cmpd 98]	366 ng/mL	448 ng/mL	554 ng/mL	
COc1ccc(-c2nc(N3CCCNCC3)nc(C(Cl)(Cl)Cl)n2)cc1 [Cmpd 101]	117 ng/mL	182 ng/mL	158 ng/mL	
COc1ccccc1-c1nc(NCCCN2CCCC2)nc(C(Cl)(Cl)Cl)n1 [Cmpd 105]	73 ng/mL	145 ng/mL	93 ng/mL	
Cc1ccc(-c2nc(NCc3ccncc3)nc(C(Cl)(Cl)Cl)n2)cc1 [Cmpd 134]	453 ng/mL	521 ng/mL		
COc1ccccc1-c1nc(NCc2ccncc2)nc(C(Cl)(Cl)Cl)n1 [Cmpd 135]	461 ng/mL	765 ng/mL		
COc1ccccc1-c1nc(NCc2cccnc2)nc(C(Cl)(Cl)Cl)n1 [Cmpd 154]	477 ng/mL			
COc1ccc(-c2nc(NCc3cccnc3)nc(C(Cl)(Cl)Cl)n2)cc1 [Cmpd 156]	560 ng/mL			
CC(C)(C)c1ccc(-c2nc(NCc3ccccn3)nc(C(Cl)(Cl)Cl)n2)cc1 [Cmpd 170]	313 ng/mL			
CS(=O)(=O)c1ccc(-c2nc(NCCc3ccccn3)nc(C(Cl)(Cl)Cl)n2)cc1 [Cmpd 180]	478 ng/mL	819 ng/mL		
COc1ccccc1-c1nc(NCCc2cccnc2)nc(C(Cl)(Cl)Cl)n1 [Cmpd 182]	256 ng/mL	659 ng/mL		
CN1CCCC1CCNc1nc(-c2ccc(-c3ccccc3)cc2)nc(C(Cl)(Cl)Cl)n1 (centres unmarked) [Cmpd 201]	845 ng/mL			
ClC(Cl)(Cl)c1nc(NCc2cccnc2)nc(-c2ccc(-c3ccccc3)cc2)n1 [Cmpd 249]	545 ng/mL		755 ng/mL	
ClC(Cl)(Cl)c1nc(NCc2ccccn2)nc(-c2ccc(-c3ccccc3)cc2)n1 [Cmpd 250]	721 ng/mL		858 ng/mL	
Cc1ccc(-c2ccccc2-c2nc(N3CCCNCC3)nc(C(Cl)(Cl)Cl)n2)cc1 [Cmpd 263]	960 ng/mL		763 ng/mL	
COc1ccc(-c2nc(NC3CCN(C)CC3)nc(C(Cl)(Cl)Cl)n2)cc1 [Cmpd 275]	618 ng/mL		699 ng/mL	

Compound	W2 (P. falciparum W2)	D6 (P. falciparum D6)	C235 (P. falciparum C235)	other results
COc1ccccc1Cc1nc(N2CCCN(C)CC2)nc(C(Cl)(Cl)Cl)n1 [Cmpd 289]	311 ng/mL	810 ng/mL		
CCN1CCC(CNc2nc(Nc3cccnc3OC)nc(C(Cl)(Cl)Cl)n2)CC1 [Cmpd 352]				W2 (SYBR Green Assay IC50) (P. falciparum W2): 0.6372 µg/mL; D6 (SYBR Green Assay IC50) (P. falciparum D6): 0.7908 µg/mL
CN1CCCC1CCNc1nc(-c2ccc(N3CCCC3)cc2)nc(C(Cl)(Cl)Cl)n1 (centres unmarked) [Cmpd 370]				D6 (SYBR Green Assay IC50) (P. falciparum D6): 0.846 µg/mL
COc1ccc(-c2nc(N3CCCN(C)CC3)nc(C(Cl)(Cl)Cl)n2)cc1OC [Cmpd 398]				W2 (SYBR Green Assay IC50) (P. falciparum W2): 0.638 µg/mL
COc1ccc(-c2nc(NC3CCN(C)CC3)nc(C(Cl)(Cl)Cl)n2)cc1OC [Cmpd 399]				W2 (SYBR Green Assay IC50) (P. falciparum W2): 0.705 µg/mL
Cc1ccc(-c2nc(N3CCN(CCO)CC3)nc(C(Cl)(Cl)Cl)n2)cc1 [Cmpd 416]				W2 (SYBR Green Assay IC50) (P. falciparum W2): 0.381 µg/mL
OCCN1CCCN(c2nc(-c3ccc(N4CCCC4)cc3)nc(C(Cl)(Cl)Cl)n2)CC1 [Cmpd 465]				W2 (SYBR Green Assay IC50) (P. falciparum W2): 0.222 µg/mL; C235 (SYBR Green Assay IC50) (P. falciparum C235): 0.498 µg/mL
Clc1ccc(-c2nc(NCCc3cnccn3)nc(C(Cl)(Cl)Cl)n2)cc1Cl [Cmpd 470]				W2 (SYBR Green Assay IC50) (P. falciparum W2): 0.07 µg/mL; C235 (SYBR Green Assay IC50) (P. falciparum C235): 0.258 µg/mL
Clc1cc(Cl)cc(-c2nc(NCCc3cnccn3)nc(C(Cl)(Cl)Cl)n2)c1 [Cmpd 471]				W2 (SYBR Green Assay IC50) (P. falciparum W2): 0.174 µg/mL
CSc1ccc(-c2nc(NCCc3cnccn3)nc(C(Cl)(Cl)Cl)n2)cc1 [Cmpd 543]				W2 (SYBR Green Assay IC50) (P. falciparum W2): 0.669 µg/mL
COc1ccc(-c2nc(NCCc3cnccn3)nc(C(Cl)(Cl)Cl)n2)c2ccccc12 [Cmpd 546]				W2 (SYBR Green Assay IC50) (P. falciparum W2): 0.361 µg/mL; C235 (SYBR Green Assay IC50) (P. falciparum C235): 0.701 µg/mL
CN(C)C1CCC(Nc2nc(-c3ccc(C(Cl)(Cl)Cl)cc3)nc(C(Cl)(Cl)Cl)n2)CC1 (centres unmarked) [Cmpd 597]				W2 (SYBR Green Assay IC50) (P. falciparum W2): 0.882 µg/mL
ClC(Cl)(Cl)c1ccc(C(Cl)(Cl)Cl)cc1.FC(F)(F)c1cccc(-c2nc(NCCCN3CCCC3)nc(C(Cl)(Cl)Cl)n2)c1 [Cmpd 602]				W2 (SYBR Green Assay IC50) (P. falciparum W2): 0.853 µg/mL
CS(=O)(=O)c1ccc(-c2nc(NCc3ccncc3)nc(C(Cl)(Cl)Cl)n2)cc1 [Compound 650, CS(═O)(═O)c1ccc(cc1)c2nc(NCc3ccncc3)nc(n2)C(Cl)(Cl)Cl]				W2 (SYBR Green Assay IC50) (P. falciparum W2): 0.803 µg/mL
COc1ncccc1Nc1nc(-c2ccc(S(C)(=O)=O)cc2)nc(C(Cl)(Cl)Cl)n1 [Compound 651, COc1ncccc1Nc2nc(nc(n2)C(Cl)(Cl)Cl)c3ccc(cc3)S(═O)(═O)C]				W2 (SYBR Green Assay IC50) (P. falciparum W2): 0.577 µg/mL; D6 (SYBR Green Assay IC50) (P. falciparum D6): 0.76 µg/mL
NC1(CNc2nc(-c3cccc(C(F)(F)F)c3)nc(C(Cl)(Cl)Cl)n2)CCCCC1 [Compound 663, NC1(CNC2═NC(═NC(═N2)C2═CC(═CC═C2)C(F)(F)F)C(Cl)(Cl)Cl)CCCCC1]	583 ng/mL	729 ng/mL		
NC1(CNc2nc(-c3ccccc3)nc(C(Cl)(Cl)Cl)n2)CC1 [Compound 677, NC1(CNC2═NC(═NC(═N2)C2═CC═CC═C2)C(Cl)(Cl)Cl)CC1]	527 ng/mL		910 ng/mL	
NC1(CNc2nc(-c3ccc(C(Cl)(Cl)Cl)cc3)nc(C(Cl)(Cl)Cl)n2)CC1 [Compound 679, NC1(CNC2═NC(═NC(═N2)C2═CC═C(C═C2)C(Cl)(Cl)Cl)C(Cl)(Cl)Cl)CC1]	201 ng/mL	606 ng/mL		
CC(C)(C)OC(=O)N1CC2CC1CN2c1nc(-c2ccc(Cl)c(Cl)c2)nc(C(Cl)(Cl)Cl)n1 (centres unmarked) [Compound 705, CC(C)(C)OC(═O)N1CC2CC1CN2c3nc(nc(n3)C(Cl)(Cl)Cl)c4ccc(Cl)c(Cl)c4]	851.8 ng/mL			
Cc1ccc(-c2nc(N3CC4CC3CN4C(=O)OC(C)(C)C)nc(C(Cl)(Cl)Cl)n2)cc1 (centres unmarked) [Compound 711, Cc1ccc(cc1)c2nc(nc(n2)C(Cl)(Cl)Cl)N3CC4CC3CN4C(═O)OC(C)(C)C]		812 ng/mL		
CC(C)(C)c1ccc(-c2nc(N3CCOCC3)nc(C(Cl)(Cl)Cl)n2)cc1 [Compound 734, CC(C)(C)c1ccc(cc1)c2nc(nc(n2)C(Cl)(Cl)C1)N3CCOCC3]	834 ng/mL			
CC(C)(C)c1ccc(cc1)c2nc(nc(n2)C(Cl)(Cl)Cl)N3CCCN(CCO)CC3 [Compound 738]	60.48 ng/mL		239.9 ng/mL	
CCN(CC)CCCC(C)Nc1nc(Nc2ccc(Cl)c(Cl)c2)nc(n1)C(Cl)(Cl)Cl [Compound 646]				W2 (SYBR Green Assay IC50) (P. falciparum W2): 0.7354 µg/mL; D6 (SYBR Green Assay IC50) (P. falciparum D6): 0.6727 µg/mL
CN(CCc1ccccn1)c2nc(nc(n2)C(Cl)(Cl)Cl)c3ccc(cc3)C(C)(C)C [Compound 736]	445.4 ng/mL			
CN(Cc1ccccc1c2cccnc2)c3nc(nc(n3)C(Cl)(Cl)Cl)c4ccc(cc4)C(Cl)(Cl)Cl [Compound 653]	272.1 ng/mL			
CS(═O)(═O)c1ccc(cc1)c2nc(nc(n2)C(Cl)(Cl)Cl)N3CCC(CC3)C(═O)N [Compound 690]	670 ng/mL			
